Values joined by “and” are separate entries in the source; they are usually repeats but may differ in a detail not shown here. Equal values may be shown once.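 Where inhibition never reached the appropriate level, the endpoint shown equals the highest concentration tested. Otherwise, values were interpolated linearly from a five-concentration, 48-hour dose response in 96-well plates. GI50: concentration for 50% inhibition of growth. TGI marks complete inhibition of growth.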
Columns and labels:
Assay in all cases: inhibition of tumour cell growth, NCI panel, 48 h
SNB-19 CNS = tested on: SNB-19 CNS
SK-OV-3 ovarian = tested on: SK-OV-3 ovarian
786-0 renal = tested on: 786-0 renal
UACC-62 melanoma = tested on: UACC-62 melanoma
HCT-15 colon = tested on: HCT-15 colon
MALME-3M melanoma = tested on: MALME-3M melanoma
TK-10 renal = tested on: TK-10 renal
HOP-62 NSCLC = tested on: HOP-62 NSCLC
SF-295 CNS = tested on: SF-295 CNS
T-47D breast = tested on: T-47D breast

SMILES	TGI (SNB-19 CNS)	TGI (SK-OV-3 ovarian)	TGI (786-0 renal)	TGI (UACC-62 melanoma)	TGI (HCT-15 colon)	TGI (MALME-3M melanoma)	TGI (TK-10 renal)	TGI (HOP-62 NSCLC)	TGI (SF-295 CNS)	TGI (T-47D breast)	GI50 (SK-OV-3 ovarian)	GI50 (786-0 renal)	GI50 (T-47D breast)	GI50 (UACC-62 melanoma)	GI50 (HCT-15 colon)	GI50 (MALME-3M melanoma)	GI50 (TK-10 renal)	GI50 (HOP-62 NSCLC)	GI50 (SF-295 CNS)	GI50 (SNB-19 CNS)
O=C(Nc1ccccc1Br)c1cccc([N+](=O)[O-])c1O	> 100 µM	> 57.8 µM	> 41 µM	16.4 µM	25.4 µM	7.38 µM	12.6 µM	9.79 µM	25.2 µM											
CC(C)(C)[Si](C)(C)O/N=C\c1ccc(O[Si](C)(C)C(C)(C)C)cc1	> 100 µM	> 100 µM	> 100 µM	> 100 µM	> 100 µM	> 100 µM	> 100 µM	> 100 µM	> 100 µM											
CN1c2ccccc2S(=O)(=O)n2c(COc3ccc(Cl)cc3)nnc21	> 100 µM	> 100 µM	> 100 µM	> 100 µM	> 100 µM		> 100 µM	47.8 µM	92.7 µM	> 100 µM										
N#CC(C#N)=CSc1ccccc1	> 100 µM	> 100 µM	34.5 µM	82.2 µM	> 100 µM		> 100 µM	> 100 µM	> 100 µM											
O=C1/C(=C\c2coc3ccccc3c2=O)c2ccccc2N1c1c(Cl)cccc1Cl		> 100 µM	33.7 µM	> 100 µM	> 100 µM	13 µM	> 100 µM	> 100 µM	> 100 µM	31.1 µM	35600 nM	3100 nM	3.05 µM	2130 nM	650 nM	2480 nM	3290 nM	4770 nM	4220 nM	
O=C(O)C1CCCCN1C(=O)c1ccccc1 (centres undefined)	> 100 µM	> 100 µM	> 100 µM	> 100 µM	> 100 µM	> 100 µM	> 100 µM	> 100 µM	> 100 µM											
NC(=O)C(NC=O)c1ccccc1 (centres undefined)	> 100 µM	> 100 µM	> 100 µM	> 100 µM	> 100 µM		> 100 µM	> 100 µM	> 100 µM	> 100 µM										
COc1ccc2c(=O)c3cc([N+](=O)[O-])ccc3n(C)c2c1	> 100 µM		> 100 µM	> 100 µM	> 100 µM	> 100 µM	> 100 µM		> 100 µM	> 100 µM										
Cc1cc(NS(=O)(=O)c2ccc(NC(=O)c3cccc4c(Nc5ccc(S(=O)(=O)Nc6cc(C)on6)cc5)c5ccccc5nc34)cc2)no1	88.7 µM	> 100 µM	89.8 µM	35 µM	> 100 µM	> 100 µM		> 100 µM	> 100 µM											
Cc1ccccc1N=Nc1c(O)[nH]c2ccccc12	> 100 µM	> 100 µM	> 100 µM	> 100 µM	> 100 µM		> 100 µM	> 100 µM	> 100 µM	> 100 µM										
CNc1ccc(-c2cc(=O)oc3ccc(Cl)cc23)cc1	> 100 µM	> 100 µM	> 100 µM	89.7 µM			> 100 µM	> 100 µM	> 100 µM		218 nM and 107 nM	133 nM and 44.2 nM		36.9 nM and 43.1 nM	42.1 nM		702 nM and 210 nM	69.6 nM and 169 nM	47.9 nM and 32.2 nM	230 nM and 71.7 nM
Cc1cc(C)cc(Sc2c([N+](=O)[O-])ncn2C)c1	> 100 µM	75.5 µM	76.8 µM	29.8 µM		25.3 µM	72.4 µM	> 100 µM	70.8 µM											
Cc1cc(C(=O)N2CCN(Cc3ccccc3)CC2)c(C)o1	> 100 µM	> 100 µM	> 100 µM	> 100 µM	> 100 µM		> 100 µM	> 100 µM	> 100 µM											
CCN(CC)CCNC(=O)c1cccc2cc3ccccc3nc12	64.7 µM	37.9 µM	32 µM	15.9 µM	32.5 µM		31.8 µM	36.9 µM	37.1 µM											
CCC[CH2][Sn]([CH2]CCC)([O]C(=O)c1nccnc1N)[O]C(=O)c1nccnc1N	2.69 µM	3.63 µM	1.91 µM	2.16 µM	2.37 µM	2.04 µM	2.02 µM	3.57 µM	2.52 µM		2060 nM	652 nM		998 nM	1150 nM	570 nM	742 nM	2120 nM	1260 nM	1400 nM
NCC1OC(OC2C(CO)OC(OC3C(O)C(N)CC(N)C3OC3OC(CO)C(O)C(O)C3N)C2O)C(N)C(O)C1O (centres undefined)	> 50 µg/mL	> 50 µg/mL	> 50 µg/mL	> 50 µg/mL	> 50 µg/mL		> 50 µg/mL	> 50 µg/mL	> 50 µg/mL		> 50 µg/mL	> 50 µg/mL		> 50 µg/mL	> 50 µg/mL		> 50 µg/mL	> 50 µg/mL	> 50 µg/mL	> 50 µg/mL
C=C(C)[C@@H]1CCC2=C[C@@H](OC2=O)[C@@H](C(=C)C)C(=O)/C=C(/C)C(=O)C1	> 100 µM		> 100 µM	61.1 µM	69.7 µM	71.5 µM	90.9 µM	> 100 µM	> 100 µM	> 100 µM		35500 nM	51.1 µM	24800 nM	24100 nM	23800 nM	31300 nM	36200 nM	35900 nM	33800 nM
CC1(C)CC2C=C(C=O)C3(C=O)CC3(C)C2C1 (centres undefined)	25.6 µM	16.2 µM	3.13 µM	17.1 µM	3.94 µM		5.62 µM	8.86 µM	18.8 µM	9.02 µM										
COC(=O)C1CCC(Nc2cccc(C(F)(F)F)c2)=N1 (centres undefined)	> 100 µM	> 100 µM	> 100 µM	> 100 µM	> 100 µM	> 100 µM	> 100 µM	> 100 µM	> 100 µM											
O=C(O)C1c2ccccc2C(C(=O)O)c2ccccc21 (centres undefined)	> 100 µM	> 100 µM	> 100 µM	> 100 µM	> 100 µM	> 100 µM	> 100 µM	> 100 µM	> 100 µM											
